Measurements published in the supplement of paper PMC10307832.

What was measured:
Experiment in all cases: relative viability (nuclei count vs DMSO), 5 days (fraction); higher = more cells survive
[1] = compound: C/C(=N\NC(=S)N1CCC1)/C2=CC=CC=N2 + NC(=O)Nc1cc(-c2cccc(F)c2)sc1C(=O)N[C@H]1CCCNC1 [AZD7762] (partner 0.2 µM)
Method in brief: (§1)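 Relative viability divides the nuclei count in treated wells by that in vehicle wells. Lung cancer cell lines were seeded in 1536-well plates, dosed by pin tool the next day, and fixed and stained after 5 days in one step with final 0.05% Triton X-100, 1% formaldehyde and 1 ug/ml Hoechst. Dosing was a single drug or a fixed anchor-drug dose plus five library-drug doses (not always all listed) in √10 steps, and values are medians of duplicate plates imaged at 4×.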

[2] = compound: C/C(=N\NC(=S)N1CCC1)/C2=CC=CC=N2 + CC(C)C[C@H](NC(=O)[C@H](Cc1ccccc1)NC(=O)c1cnccn1)B(O)O [Bortezomib] (partner 0.002 µM)
Method in brief: as §1

[3] = compound: C/C(=N\NC(=S)N1CCC1)/C2=CC=CC=N2 + CS(=O)(=O)N1CCN(Cc2cc3nc(-c4cccc5[nH]ncc45)nc(N4CCOCC4)c3s2)CC1 [Pictilisib] (partner 1 µM)
Method in brief: as §1

[4] = compound: C/C(=N\NC(=S)N1CCC1)/C2=CC=CC=N2 + C[C@]1(O)C[C@@H](c2nc(-c3ccc4ccc(-c5ccccc5)nc4c3)c3c(N)nccn32)C1 [Linsitinib] (partner 1 µM)
Method in brief: as §1

[5] = compound: C/C(=N\NC(=S)N1CCC1)/C2=CC=CC=N2 + O=C(c1cc(Cc2n[nH]c(=O)c3ccccc23)ccc1F)N1CCN(C(=O)C2CC2)CC1 [Olaparib] (partner 8 µM)
Method in brief: as §1

[6] = compound: C/C(=N\NC(=S)N1CCC1)/C2=CC=CC=N2 + C[C@@H](Oc1cc(-c2cnn(C3CCNCC3)c2)cnc1N)c1c(Cl)ccc(F)c1Cl [Crizotinib] (partner 1 µM)
Method in brief: as §1

[7] = compound: C/C(=N\NC(=S)N1CCC1)/C2=CC=CC=N2 + CC1(C)CCC(c2ccc(Cl)cc2)=C(CN2CCN(c3ccc(C(=O)NS(=O)(=O)c4ccc(N[C@H](CCN5CCOCC5)CSc5ccccc5)c(S(=O)(=O)C(F)(F)F)c4)cc3)CC2)C1 [Navitoclax] (partner 0.5 µM)
Method in brief: as §1

[8] = compound: C/C(=N\NC(=S)N1CCC1)/C2=CC=CC=N2 + COc1cc2c(Oc3ccc(NC(=O)C4(C(=O)Nc5ccc(F)cc5)CC4)cc3F)ccnc2cc1OCCCN1CCOCC1 [Foretinib] (partner 0.25 µM)
Method in brief: as §1

[9] = compound: C/C(=N\NC(=S)N1CCC1)/C2=CC=CC=N2 + Cc1nc(NC(=O)N2CCC[C@H]2C(N)=O)sc1-c1ccnc(C(C)(C)C(F)(F)F)c1 [Alpelisib] (partner 2 µM)
Method in brief: as §1

[10] = compound: C/C(=N\NC(=S)N1CCC1)/C2=CC=CC=N2 + CS(=O)(=O)CCNCc1ccc(-c2ccc3ncnc(Nc4ccc(OCc5cccc(F)c5)c(Cl)c4)c3c2)o1 [Lapatinib] (partner 2 µM)
Method in brief: as §1

[11] = compound: C/C(=N\NC(=S)N1CCC1)/C2=CC=CC=N2
Method in brief: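 Nuclei counted with MetaXpress define viability as the ratio of treated to vehicle wells, given as a median across plates. The lung cancer cell lines were in 1536-well plates, pinned with five √10-spaced library-drug doses and imaged at 4× after 5 days and Hoechst staining. Plates passed with control CV below 25% and at least one doubling.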

NCI-H1703
relative viability ([1]; first compound 0.05 µM): 0.0509
relative viability ([1]; first compound 0.1581 µM): 0.0548
relative viability ([1]; first compound 0.5 µM): 0.0472
relative viability ([1]; first compound 1.581 µM): 0.114
relative viability ([1]; first compound 5 µM): 0.102
relative viability ([2]; first compound 0.05 µM): 0.0746
relative viability ([2]; first compound 0.1581 µM): 0.0958
relative viability ([2]; first compound 0.5 µM): 0.166
relative viability ([2]; first compound 1.581 µM): 0.134
relative viability ([2]; first compound 5 µM): 0.171
relative viability ([3]; first compound 0.05 µM): 0.102
relative viability ([3]; first compound 0.1581 µM): 0.0942
relative viability ([3]; first compound 0.5 µM): 0.162
relative viability ([3]; first compound 1.581 µM): 0.159
relative viability ([3]; first compound 5 µM): 0.167
relative viability ([4]; first compound 0.05 µM): 0.0702
relative viability ([4]; first compound 0.1581 µM): 0.0548
relative viability ([4]; first compound 0.5 µM): 0.068
relative viability ([4]; first compound 1.581 µM): 0.0799
relative viability ([4]; first compound 5 µM): 0.121
relative viability ([5]; first compound 0.05 µM): 0.0864
relative viability ([5]; first compound 0.1581 µM): 0.132
relative viability ([5]; first compound 0.5 µM): 0.103
relative viability ([5]; first compound 1.581 µM): 0.0868
relative viability ([5]; first compound 5 µM): 0.158
relative viability ([6]; first compound 0.05 µM): 0.15
relative viability ([6]; first compound 0.1581 µM): 0.103
relative viability ([6]; first compound 0.5 µM): 0.0957
relative viability ([6]; first compound 1.581 µM): 0.115
relative viability ([6]; first compound 5 µM): 0.0425
relative viability ([7]; first compound 0.05 µM): 0.124
relative viability ([7]; first compound 0.1581 µM): 0.134
relative viability ([7]; first compound 0.5 µM): 0.156
relative viability ([7]; first compound 1.581 µM): 0.124
relative viability ([7]; first compound 5 µM): 0.122
relative viability ([8]; first compound 0.05 µM): 0.163
relative viability ([8]; first compound 0.1581 µM): 0.142
relative viability ([8]; first compound 0.5 µM): 0.163
relative viability ([8]; first compound 1.581 µM): 0.206
relative viability ([8]; first compound 5 µM): 0.246
relative viability ([9]; first compound 0.05 µM): 0.0878
relative viability ([9]; first compound 0.1581 µM): 0.0975
relative viability ([9]; first compound 0.5 µM): 0.132
relative viability ([9]; first compound 1.581 µM): 0.112
relative viability ([9]; first compound 5 µM): 0.122
relative viability ([10]; first compound 0.05 µM): 0.185
relative viability ([10]; first compound 0.1581 µM): 0.153
relative viability ([10]; first compound 0.5 µM): 0.17
relative viability ([10]; first compound 1.581 µM): 0.168
relative viability ([10]; first compound 5 µM): 0.178
relative viability ([11]; 0.05 µM): 0.0684
relative viability ([11]; 0.1581 µM): 0.0887
relative viability ([11]; 0.5 µM): 0.112
relative viability ([11]; 1.581 µM): 0.126
relative viability ([11]; 5 µM): 0.161
